In patent US10221171B2, “Oxathiazole thiazolium Hsp 70 inhibitors” (THE REGENTS OF THE UNIVERSITY OF CALIFORNIA, priority 2015, dated 2019):
Read-outs that look alike come from different tables or passages of the source.

Key:
Assay type in all cases: cell-based
[1] = test system: MEF (C57BL/6); test: MTT cell viability assay, MEF (C57BL/6); settings: Mus musculus
Procedure: (§1) Cells were then treated with compound at various concentrations in 0.2 mL media. After the 72-hour incubation period, cells were washed in PBS (3×100 μL), and 10 μL MTT reagent was added with 100 μL fresh media. Cells were then incubated for 4 hr in a humidified chamber at 37° C. with 5% CO2. Insoluble formazan crystals were solubilized by addition of 0.1 mL detergent solution (4 hr at room temp., dark). Resulting colored solutions were then quantified at an absorbance of 570 nm.

[2] = test system: MCF-7; test: MTT cell viability assay, MCF-7; settings: Homo sapiens, MTT, 72-hour incubation, read-out: IC50/μM MCF-7
Procedure: as §1

[3] = test system: MDA-MB-231; test: MTT cell viability assay, MDA-MB-231; settings: Homo sapiens
Procedure: as §1

[4] = MTT, 72-hour incubation, read-out: IC50/μM MEF (C57BL/6)
[5] = 72 h, read-out: IC50/μM MEF (C57BL/6), MTT, 72-hour incubation
[6] = MDA-MB-231, 72 h, 72-hour incubation

IC50 ([2]; MCF7) [µM] | IC50 ([3]; MDA-MB-231, 72-hour incubation) [µM] | Structure (SMILES) | IC50 [1, 4] [µM] | IC50 ([2]; MCF7, 72 h) [µM] | IC50 [1, 5] [µM] | IC50 [3, 6] [µM]
0.15 ± 0.02 | 0.17 ± 0.02 | CCn1c(=O)/c(=C2\Sc3cc(C(C)C)ccc3N2C)s/c1=C\c1scc[n+]1Cc1ccsc1C(=O)OC [JG-327] | 0.7 ± 0.03 |  |  | 
0.1 ± 0.01 | 0.14 ± 0.01 | CCc1ccc2c(c1)S/C(=c1/s/c(=C\c3scc[n+]3Cc3ccccc3C)n(CC)c1=O)N2C [JG-296] | 0.61 ± 0.02 |  |  | 
0.11 ± 0.01 | 0.16 ± 0.02 | CCn1c(=O)/c(=C2\Sc3ccc(C)cc3N2C)s/c1=C\c1scc[n+]1Cc1ccccc1Cl [JG-365] | 0.42 ± 0.02 |  |  | 
0.12 ± 0.01 | 0.23 ± 0.01 | CCn1c(=O)/c(=C2\Sc3cc(OC)ccc3N2C)s/c1=C\c1scc[n+]1Cc1c(C)cccc1C [JG-349] | 1.1 ± 0.1 |  |  | 
0.14 ± 0.01 | 0.11 ± 0.01 | CCn1c(=O)/c(=C2\Sc3cc(C)ccc3N2C)s/c1=C\c1scc[n+]1Cc1ccsc1C(=O)OC [JG-248] | 1.2 ± 0.2 |  |  | 
0.19 ± 0.01 | 0.22 ± 0.02 | CCn1c(=O)/c(=C2\Sc3ccc(C)cc3N2C)s/c1=C\c1scc[n+]1Cc1ccccc1C [JG-366] | 0.99 ± 0.04 |  |  | 
0.55 ± 0.03 | 0.62 ± 0.05 | CCn1c(=O)/c(=C2\Sc3cc(Cl)ccc3N2C)s/c1=C\c1scc[n+]1CCc1cccc(Cl)c1 [JG-381] | 2.3 ± 0.2 |  |  | 
0.27 ± 0.02 | 0.12 ± 0.02 | CCn1c(=O)/c(=C2\Sc3cc(Br)ccc3N2C)s/c1=C\c1scc[n+]1Cc1ccccc1Cl [JG-289] | 0.96 ± 0.05 |  |  | 
0.3 ± 0.03 | 0.14 ± 0.03 | CCn1c(=O)/c(=C2\Sc3cc(Br)ccc3N2C)s/c1=C\c1scc[n+]1Cc1ccsc1C(=O)OC [JG-293] | 3.1 ± 0.3 |  |  | 
0.16 ± 0.02 | 0.19 ± 0.02 | CCn1c(=O)/c(=C2\Sc3cc(F)ccc3N2C)s/c1=C\c1scc[n+]1Cc1ccccc1Br [JG-308] | 0.6 ± 0.06 |  |  | 
0.86 ± 0.08 | 0.27 ± 0.01 | CCn1c(=O)/c(=C2\Sc3cc(Cl)ccc3N2C)s/c1=C\c1scc[n+]1CCc1ccccc1OC [JG-389] | 2.4 ± 0.1 |  |  | 
0.24 ± 0.03 | 0.38 ± 0.03 | CCn1c(=O)/c(=C2\Sc3cc(F)ccc3N2C)s/c1=C\c1scc[n+]1[C@H](C)c1ccccc1 [JG-340] | 1.5 ± 0.05 |  |  | 
0.36 ± 0.02 | 0.77 ± 0.1 | CCn1c(=O)/c(=C2\Sc3cc(F)ccc3N2C)s/c1=C\c1scc[n+]1Cc1cccc(Cl)c1 [JG-272] | 0.62 ± 0.03 |  |  | 
0.12 ± 0.01 | 0.19 ± 0.03 | CCn1c(=O)/c(=C2\Sc3cc(OC)ccc3N2C)s/c1=C\c1scc[n+]1CCc1ccccc1C(F)(F)F [JG-377] | > 10 |  |  | 
0.22 ± 0.01 | 0.11 ± 0.01 | CCn1c(=O)/c(=C2\Sc3cc(SC)ccc3N2C)s/c1=C\c1scc[n+]1Cc1ccccc1OC [JG-358] | 1.6 ± 0.1 |  |  | 
0.067 ± 0.005 | 0.084 ± 0.012 | CCn1c(=O)/c(=C2\Sc3ccc(C)cc3N2C)s/c1=C\c1scc[n+]1Cc1ccccc1SC(F)(F)F [JG-363] | 2.1 ± 0.1 |  |  | 
0.078 ± 0.003 | 0.062 ± 0.01 | CCn1c(=O)/c(=C2\Sc3cc(C)ccc3N2C)s/c1=C\c1scc[n+]1Cc1ccccc1C(F)(F)F [JG-285] | 0.66 ± 0.06 |  |  | 
 |  | CCn1c(=O)/c(=C2\Sc3ccc(C)cc3N2C)s/c1=C\c1scc[n+]1Cc1c(Cl)cccc1Cl [JG-361] |  | 0.088 ± 0.008 | 0.55 ± 0.03 | 0.054 ± 0.006
0.15 ± 0.01 | 0.15 ± 0.01 | CCn1c(=O)/c(=C2\Sc3cc(OC)ccc3N2C)s/c1=C\c1scc[n+]1Cc1cc(C)sc1C [JG-353] | 1.1 ± 0.1 |  |  | 
0.59 ± 0.03 | 0.46 ± 0.06 | CCn1c(=O)/c(=C2\Sc3cc(C)ccc3N2C)s/c1=C\c1scc[n+]1CCc1cccc(Cl)c1 [JG-382] | 1.2 ± 0.1 |  |  | 
0.13 ± 0.01 | 0.26 ± 0.03 | CCn1c(=O)/c(=C2\Sc3cc(C(C)C)ccc3N2C)s/c1=C\c1scc[n+]1C(C)c1ccccc1 (stereo not drawn) [JG-319] | 1.7 ± 0.04 |  |  | 
0.22 ± 0.03 | 0.26 ± 0.03 | CCn1c(=O)/c(=C2\Sc3cc(F)ccc3N2C)s/c1=C\c1scc[n+]1Cc1ccccc1C(=O)OC [JG-332] | 2 ± 0.1 |  |  | 
 |  | CCn1c(=O)/c(=C2\Sc3cc(SC)ccc3N2C)s/c1=C\c1scc[n+]1Cc1ccccc1Cl [JG-309] |  | 0.15 ± 0.01 | 0.75 ± 0.05 | 0.13 ± 0.01
> 5 | 6.7 ± 0.5 | CCn1c(=O)/c(=C2\Sc3cc(F)ccc3N2C)s/c1=C\c1scc[n+]1Cc1cnc(Cl)s1 [JG-260] | 8.2 ± 0.4 |  |  | 
> 5 | > 20 | CCn1c(=O)/c(=C2\SCCN2C)s/c1=C\c1scc[n+]1Cc1ccccc1 [JG-258] | > 10 |  |  | 

Structure (SMILES) | IC50 ([2]; MCF7) [µM] | IC50 ([3]; MDA-MB-231, 72-hour incubation) [µM] | IC50 [1, 4] [µM] | IC50 ([2]; MCF7, 72 h) [µM] | IC50 [1, 5] [µM] | IC50 [3, 6] [µM]
CCc1ccc2c(c1)S/C(=c1/s/c(=C\c3scc[n+]3Cc3c(Cl)cccc3Cl)n(CC)c1=O)N2C [JG-342] |  | 0.1 ± 0.01 | 0.3 ± 0.1 | 0.093 ± 0.007 |  | 
